Data published in publication PMC5209880, “Mobilization of hematopoietic stem cells with the novel CXCR4 antagonist POL6326 (balixafortide) in healthy volunteers—results of a dose escalation trial” (Journal of Translational Medicine, 2017).
Where two headings read alike, the source gives them in different places.

Experiments:
[1] = Pharmacokinetics from serial plasma samples after intravenous infusion
Experimental: (§1) A total of 27 volunteers were treated with balixafortide. A treatment consisted of a single intravenous infusion of balixafortide in normal saline at doses of 500, 1000, 1500, 2000 and 2500 μg/kg, based on actual weight, followed by sequential clinical and blood analyses (see below). Initially conceived as a classical 3 + 3 dose escalation design, the volunteers were assigned to four groups defined by increasing dose levels of balixafortide (500, 1000, 1500, and 2000 μg/kg) administered by constant rate infusion at over 2 h. Subsequently, amendments were added to test additional modalities: Group 6 received 2500 μg/kg under the same conditions. Volunteers assigned to Group 5 received a dose level of 2000 μg/kg by an continuously increasing infusion rate (ramp-infusion instead of constant rate infusion) applied over 2 h. In group 7, a dose level of 1000 μg/kg was infused over 1 h at a constant rate and compared (intra-individually) to the 2 h infusion given with an interval of ≥4 weeks. A second balixafortide treatment was furthermore tested in volunteers from groups 2, 3 and 6 with groups 2 and 3 receiving 2500 μg/kg and group 6 given 1500 μg/kg as the second infusion. […] Thus, to allow for intra-individual comparison, 12 donors received a second dose of balixafortide (2 h constant infusion rate for all) after a minimum wash-out period of 4 weeks.
Plasma samples were collected at the indicated times and kept frozen until immediately before analysis.
Serial plasma samples were assayed for balixafortide concentrations and pharmacokinetic parameters were calculated using Phoenix WinNonlin 6.4.

leukocytes = assay: Mobilization of mature hematopoietic cells (blood counts, flow cytometry); type: in vivo, human
Experimental: (§2) Blood samples were collected at the indicated times (Figs. 1, 2, 3, 4, 5 and 6) and kept at room temperature (maximum 2–3 h.) until immediately before analysis. Complete blood counts were assessed with the Sysmex XT1800 hematology analyzer (Norderstedt, Germany). CD34+ cells were quantified using the single platform flow cytometry analysis with the SCE Kit [Becton–Dickinson (BD), Heidelberg, Germany] according to the manufacturer’s instructions and ISHAGE guidelines. In addition, multi-parametric flow cytometric analyses were performed to quantify co-mobilized mature cell subsets such as T (CD45+ CD3+), B (CD45+ CD19+) and NK (CD45+ CD56+ 16+) cells (Multitest, T cells, BD), T cell subpopulations (CD45+ CD3+ CD4+/CD8+, Multitest, TBNL cells, BD) and monocytes (CD45+ CD14+, all from BD). In addition, plasmacytoid dendritic cell progenitors (pro-pDCs) were identified as CD45dimCD34dimCD45RA + CD123high (all moABs from BD). Lyse-no-wash protocols were used in conjunction with BD counting beads for direct cell enumeration for CD34+ cells and T cell subsets; all other cell concentrations were calculated using frequencies relative to directly enumerated cell species, such as CD34+, CD45+ or CD3+ cells.

healthy male volunteers [2] = assay: Phase I dose escalation trial: safety and tolerability, adverse events
Experimental: Additional eligibility (inclusion) criteria for treatment with balixafortide were the same as for G-CSF mobilized stem cell donation. Between G-CSF mobilization/HSPC donation and study participation there was a wash-out period of at least 6 weeks.
Study drug was administered on an in-patient basis in the phase I clinical trial unit of Goethe University Medical Center, the ‘Klinisches Studienzentrum Rhein-Main’. Volunteers were discharged 24 h after treatment, to return for a follow-up appointment 8–14 days thereafter.
as §1
Vital signs were monitored immediately prior to and in the first 24 h after the start of the infusion of balixafortide; serial blood samples were drawn for biochemical safety profiling and pharmacokinetic/pharmacodynamic analyses. Given the cationic nature of the compound [17] the risk of local or systemic symptoms of histamine release was identified and anti-histamine treatment was proposed (per protocol) in case of such symptoms. […] Volunteers who received prophylactic or therapeutic anti-histamine medication are listed accordingly in Table 1.

healthy male volunteers [3] = assay: Subjective rating questionnaire of G-CSF vs. balixafortide at follow-up; conditions: number of responses
CD34+ cells (HSPC) = assay: Mobilization of CD34+ cells, single platform flow cytometry of blood; type: in vivo, human
Experimental: A total of 27 volunteers were treated with balixafortide.
as §2

[4] = tested on: plasmacytoid dendritic cell progenitors (pro-pDCs); assay: Mobilization of plasmacytoid dendritic cell progenitors (pro-pDCs), flow cytometry; type: in vivo, human; conditions: balixafortide 1st treatment, constant infusion rate, 2 h; n = 21, mean ± SEM
Experimental: as §2

healthy male volunteers [5] = conditions: in vivo
CD34+ cells = conditions: same daily dose as a single injection; cited from earlier work
Source text: The ability of CXCR4 antagonists to rapidly dislodge stem cells from the marrow has been recognized for many years. Previously studied compounds were neither universally well tolerated nor very potent. The only currently approved CXCR4 antagonist plerixafor mobilized a median of 16 CD34+ cells per µL when administered alone (without G-CSF) in healthy donors, which is barely sufficient to generate a normal-sized graft in two apheresis sessions. || The comparator agent in our study was G-CSF given in split doses as is routine practice in our center; the rationale is twofold: more efficient mobilization and potentially better tolerability. […] Thus the advantage in efficiency of single-dose G-CSF vs. balixafortide at the doses tested here would be les ...

CFU-C (HSPC) = assay: Circulating colony-forming units-culture (CFU-C) in methylcellulose media; type: in vivo, human; conditions: all doses, mean ± SEM
Source text: Circulating colony-forming units-culture (CFU-C) were quantified by plating aliquots of lysed peripheral blood in commercial cytokine-replete methylcellulose media (StemMACS HSC-CFU lite with Epo, human, Miltenyi Biotec GmbH, Bergisch-Gladbach, Germany).

[6] = 500 μg/kg, 2 h const. infusion, n = 3 volunteers
[7] = 1000 μg/kg, 1 h const. infusion, n = 3 volunteers
[8] = 1000 μg/kg, 2 h const. infusion, n = 7 volunteers
[9] = 1500 μg/kg, 2 h const. infusion, n = 7 volunteers
[10] = 2000 μg/kg, 2 h const. infusion, n = 6 volunteers
[11] = 2000 μg/kg, 2 h ramp infusion, n = 3 volunteers
[12] = 2500 μg/kg, 2 h const. infusion, n = 10 volunteers

Molecule: C[C@@H]1NC(=O)[C@H](Cc2c[nH]cn2)NC(=O)[C@H](Cc2ccc(O)cc2)NC(=O)[C@@H]2CCCN2C(=O)[C@H]2CCCN2C(=O)[C@H](CCCCN)NC(=O)[C@H](CCC(N)=O)NC(=O)[C@H](Cc2ccc(O)cc2)NC(=O)[C@@H]2CSSC[C@H](NC1=O)C(=O)N[C@@H](CO)C(=O)N[C@@H](C)C(=O)N1CCC[C@@H]1C(=O)N[C@@H](CCN)C(=O)N[C@@H](CCCNC(=N)N)C(=O)N[C@@H](Cc1ccc(O)cc1)C(=O)N2 [balixafortide]
- Volume of distribution ([1]; human plasma, i.v. infusion 500-2500 µg/kg, Phoenix WinNonlin 6.4, approximately): 0.5 to 0.6 L/kg
- Clearance ([1]; human, i.v. infusion): almost equal to the glomerular filtration rate
- Dose dependence of Cmax and AUC ([1]; human, i.v. infusion 500-2500 µg/kg, n = 3-6): dose linearity for both Cmax and AUC
- half-life ([1]; human, plasma, iv): ~5 h
- Mature cells mobilized relative to G-CSF (leukocytes; doses of 1500-2500 µg/kg): approximately half as many mature cells as G-CSF
- White blood counts (WBCs) reached (leukocytes; doses of 1500-2500 µg/kg, mean ± SEM): 25.3 ± 1.4 × 10*3 WBC/µL
- Mild skin reactions such as flushing, urticaria or local itching, volunteers reporting (healthy male volunteers [2]; 500 µg/kg): 1/3
- Infusion site erythema (volunteers with AE) (healthy male volunteers [2]; [6]): 1
- Volunteers with AE (healthy male volunteers [2]; [6]): 1
- Mild skin reactions such as flushing, urticaria or local itching, volunteers reporting (healthy male volunteers [2]; 1000 µg/kg): 4/10
- Pruritus (volunteers with AE) (healthy male volunteers [2]; [7]): 1
- Volunteers with AE (healthy male volunteers [2]; [7]): 1
- BP increase (volunteers with AE) (healthy male volunteers [2]; [8]): 2
- Infusion site pruritus (volunteers with AE) (healthy male volunteers [2]; [8]): 1
- Pruritus (volunteers with AE) (healthy male volunteers [2]; [8]): 2
- Volunteers with AE (healthy male volunteers [2]; [8]): 5
- Mild skin reactions such as flushing, urticaria or local itching, volunteers reporting (healthy male volunteers [2]; 1500 µg/kg): 2/7
- Erythema (volunteers with AE) (healthy male volunteers [2]; [9]): 1
- Infusion site erythema (volunteers with AE) (healthy male volunteers [2]; [9]): 2
- Infusion site irritation (volunteers with AE) (healthy male volunteers [2]; [9]): 1
- Infusion site pruritus (volunteers with AE) (healthy male volunteers [2]; [9]): 1
- Pruritus (volunteers with AE) (healthy male volunteers [2]; [9]): 1
- Urticaria (volunteers with AE) (healthy male volunteers [2]; [9]): 1
- Volunteers with AE (healthy male volunteers [2]; [9]): 2
- Mild skin reactions such as flushing, urticaria or local itching, volunteers reporting (healthy male volunteers [2]; 2000 µg/kg): 8/9
- Blood CK increased (volunteers with AE) (healthy male volunteers [2]; [10]): 2
- Bone pain (volunteers with AE) (healthy male volunteers [2]; [10]): 1
- Erythema (volunteers with AE) (healthy male volunteers [2]; [10]): 4
- Flushing (volunteers with AE) (healthy male volunteers [2]; [10]): 1
- Hypoasthesia (volunteers with AE) (healthy male volunteers [2]; [10]): 1
- Pruritus (volunteers with AE) (healthy male volunteers [2]; [10]): 4
- Urticaria (volunteers with AE) (healthy male volunteers [2]; [10]): 1
- Volunteers with AE (healthy male volunteers [2]; [10]): 6
- Flushing (volunteers with AE) (healthy male volunteers [2]; [11]): 1
- Pruritus (volunteers with AE) (healthy male volunteers [2]; [11]): 2
- Volunteers with AE (healthy male volunteers [2]; [11]): 2
- Mild skin reactions such as flushing, urticaria or local itching, volunteers reporting (healthy male volunteers [2]; 2500 µg/kg): 7/10
- Erythema (volunteers with AE) (healthy male volunteers [2]; [12]): 7
- Feeling hot (volunteers with AE) (healthy male volunteers [2]; [12]): 1
- Headache (volunteers with AE) (healthy male volunteers [2]; [12]): 1
- Hypoasthesia (volunteers with AE) (healthy male volunteers [2]; [12]): 1
- Hypoasthesia oral (volunteers with AE) (healthy male volunteers [2]; [12]): 2
- Muscle tightness (volunteers with AE) (healthy male volunteers [2]; [12]): 1
- Throat tightness (volunteers with AE) (healthy male volunteers [2]; [12]): 1
- Vertigo (volunteers with AE) (healthy male volunteers [2]; [12]): 1
- Volunteers with AE (healthy male volunteers [2]; [12]): 7
- Severe adverse events (SAEs) (healthy male volunteers [2]; all doses 500-2500 µg/kg, 27 volunteers, 39 doses): No severe adverse events (SAEs) were observed
- Systolic blood pressure reading of >150 mmHg, considered possibly related to study drug (healthy male volunteers [2]; whole trial): 2 subjects
- Unexplained elevation in serum creatinine kinase, considered possibly related to study drug (healthy male volunteers [2]; whole trial): 2 subjects
- Side effects in the course of treatment: Abdominal pain (healthy male volunteers [3]): 0
- Side effects in the course of treatment: Bone pain (healthy male volunteers [3]): 0
- Side effects in the course of treatment: Fatigue (healthy male volunteers [3]): 4
- Side effects in the course of treatment: Fever (healthy male volunteers [3]): 0
- Side effects in the course of treatment: Flu-like symptoms (healthy male volunteers [3]): 0
- Side effects in the course of treatment: Headache (healthy male volunteers [3]): 1
- Side effects in the course of treatment: Insomnia (healthy male volunteers [3]): 1
- Side effects in the course of treatment: Palpitation (healthy male volunteers [3]): 0
- Side effects in the course of treatment: Skin reactions (healthy male volunteers [3]): 13
- Side effects in the course of treatment: Sweating (healthy male volunteers [3]): 1
- Side effects in the course of treatment: Vomiting (healthy male volunteers [3]): 1
- Time of peak CD34+ mobilization after the end of the infusion (CD34+ cells (HSPC); 500 µg/kg): 1 h
- Time of peak CD34+ mobilization after the end of the infusion (CD34+ cells (HSPC); doses higher than 500 µg/kg): approximately 4 h
- Mean peak mobilization of CD34+ cells (CD34+ cells (HSPC); doses of 1500-2500 µg/kg, single i.v. infusion, mean ± SEM): 38.2 ± 2.8 CD34+ cells/µL

B1: filgrastim (protein, UniProt P09919 31-207, looked up)
Granulocyte …: TPLGPASSLPQSFLLKCLEQVRKIQGDGAALQEKLVSECATYKLCHPEELVLLGHSLGIPWAPLSSCPSQALQLAGCLSQLHSGLFLYQGLLQALEGISPELGPTLDTLQLDVADFATTIWQQMEELGMAPALQPTQGAMPAFASAFQRRAGGVLVASHLQSFLEVSYRVLRHLAQP
modifications: filgrastim, N-terminal Met
notes: cytokine, standard hematopoietic stem and progenitor cell mobilizing agent
- Mobilization of pDC progenitors (% of CD34+CD45dim) [4]: 2.18±0.34%
- Ratio between T-lymphocytes and CD34+ cells in mobilized blood (leukocytes; mean ± SEM): 26.2 ± 1.98 :1
- Side effects in the course of treatment: Abdominal pain (healthy male volunteers [5]): 2
- Side effects in the course of treatment: Bone pain (healthy male volunteers [5]): 24
- Side effects in the course of treatment: Fatigue (healthy male volunteers [5]): 11
- Side effects in the course of treatment: Fever (healthy male volunteers [5]): 2
- Side effects in the course of treatment: Flu-like symptoms (healthy male volunteers [5]): 21
- Side effects in the course of treatment: Headache (healthy male volunteers [5]): 11
- Side effects in the course of treatment: Insomnia (healthy male volunteers [5]): 0
- Side effects in the course of treatment: Palpitation (healthy male volunteers [5]): 1
- Side effects in the course of treatment: Skin reactions (healthy male volunteers [5]): 1
- Side effects in the course of treatment: Sweating (healthy male volunteers [5]): 0
- Side effects in the course of treatment: Vomiting (healthy male volunteers [5]): 0
- Average CD34+ cell counts (CD34+ cells): mid-sixties’ range
- Mobilization response of CD34+ cells (CD34+ cells (HSPC); 5-day course of filgrastim 7.5-10 µg/kg per day in 2 divided doses, mean ± SEM): 121.6 ± 8.6 CD34+ cells/μL
- Effectiveness of G-CSF regimen relative to balixafortide, CD34+ mobilization (CD34+ cells (HSPC); intra-individual comparison, balixafortide 1500-2500 µg/kg, on average): about three times as effective
- Clonogenicity: mobilized CD34+ cells per 1 CFU-C (CFU-C (HSPC)): 3.2 ± 0.2 CD34+ cells
